Assay: xn = mol fraction of the nth substance listed
Details: 101 kPa, Liquid; for viscosity: Capillary tube (Ostwald / Ubbelohde) method; for mass density: Pycnometric method

COCCOCCOC [2,5,8-trioxanonane] + O
Details	mass density, 293.15 K [kg/m3]	mass density, 298.15 K [kg/m3]	viscosity, 293.15 K [mPa·s]	viscosity, 298.15 K [mPa·s]	viscosity, 303.15 K [mPa·s]
x1 = 0.0147	1000.9	998.8	1.39	1.22	1.06
x1 = 0.0325	1004.6	1002.7	1.9	1.66	1.41
x1 = 0.0548	1008.4	1005.5	2.56	2.2	1.82
x1 = 0.0822	1010.3	1006.8	3.21	2.73	2.22
x1 = 0.1183	1009.2	1004.8	3.65	3.1	2.51
x1 = 0.1676	1003.2	998.7	3.63	3.09	2.53
x1 = 0.2384	993.6	988.3	3.12	2.7	2.24
x1 = 0.2866	987.3	982	2.75	2.42	2.01
x1 = 0.3468	980.1	974.9	2.36	2.1	1.77
x1 = 0.4495	970.7	965.4	1.97	1.77	1.47
x1 = 0.5426	963.6	958.5	1.61	1.47	1.27
x1 = 0.699	955.5	950.2	1.32	1.2	1.08
x1 = 0.7996	951.2	945.9	1.21	1.11	0.997
x1 = 0.8928	948.3	942.9	1.14	1.05	0.955
x1 = 1	945.2	939.8	1.09	0.998	0.914

Reference: the NIST ThermoML archive (doi:10.1021/je500389t)
